# From patent publication US20240199676A1, “ANTIVIRAL COMPOUNDS AND METHODS OF MAKING AND USING THE SAME” (Gilead Sciences, Inc., priority 2022, published 2024)
# Columns and labels:
# [1] = system: Respiratory syncytial virus recombinant with luciferase (RSV-Luc5) in NHBE cells; experiment: NHBE RSV-Luc5 384-well Assay (RSV FLUC NHBE 384 V2, Ex. W); type: cell-based; conditions: human respiratory syncytial virus, 72 h, read-out: EC50 RSV FLUC NHBE 384 V2 (per Ex. W)
# Description: Example W: NHBE RSV-Luc5 384-well Assay (EC50 RSVFLUC NHBE-384)
# (§1) Normal Human Bronchial Epithelial (NHBE) cells were purchased from Lonza (Walkersville, MD Cat #CC2540) and maintained in BEGM Bronchial Epithelial Cell Growth Medium BulletKit (Lonza CC-3170).
# (§2) Cells were thawed, expanded, and were used for experiments at passage 2. Respiratory syncytial virus recombinant with luciferase (RSV-Luc5) (≥1×10^7 Infectious Units/mL (IU/mL) determined by TCID50) was purchased from Microbiologics (Saint Cloud, MN). Viral replication was determined in NHBE cells in the following manner.
# (§3) Compounds are prepared in 100% DMSO in 384-well polypropylene plates (Greiner, Monroe, NC, Cat #784201) with 8 compounds per plate in grouped replicates of 4 at 10 serially diluted concentrations (1:3). The serially diluted compounds were transferred to low dead volume Echo plates (Labcyte, Sunnyvale, CA, Cat #LP-0200).
# (§4) The test compounds were spotted to 384-well assay plates (Greiner, Monroe, NC, Cat#781091) at 200 nL per well using an Echo acoustic dispenser (Labcyte, Sunnyvale, CA). NHBE cells were harvested and suspended in BEGM Bronchial Epithelial Cell Growth Medium BulletKit and seeded to the pre-spotted assay plates at 5,000 cells per well in 30 μL. RSV-Luc5 virus was diluted in BEGM Bronchial Epithelial Cell Growth Medium BulletKit at 500,000 Infectious Units (IU) per mL and 10 μL per well was added to the assay plates containing cells and compounds, for an MOI of 1. The assay plates were incubated for 3 days at 37° C. and 5% CO2. At the end of incubation, One-Glo reagent (Promega, Madison, WI, Cat #E6120) was prepared. The assay plates and One-Glo reagent were equilibrated to room temperature for at least 15 minutes. 40 μL per well of One-Glo reagent was added and the plates were incubated at room temperature for 15 minutes before reading the luminescence signal on an EnVision multimode plate reader (Perkin Elmer, Waltham, MA). Remdesivir was used as positive control and DMSO was used as negative control. Values were normalized to the positive and negative controls (as 0% and 100% replication, respectively) and data was fitted using non-linear regression analysis by Gilead's dose response tool. The EC50 value for each compound was defined as the concentration reducing the viral replication by 50%.
# [2] = system: Respiratory syncytial virus recombinant with luciferase (RSV-Luc5) in NHBE cells; experiment: NHBE RSV-Luc5 384-well Assay (EC50 RSVFLUC NHBE-384, Ex. U); type: cell-based; conditions: human respiratory syncytial virus, 72 h, read-out: EC50 RSV FLUC NHBE 384 (per Ex. U)
# Description: Example U. NHBE RSV-Luc5 384-well Assay (EC50 RSVFLUC NHBE-384)
# as §1
# as §2, with “Units/ml (IU/ml)” for “Units/mL (IU/mL)”
# as §3
# as §4, with “well.” for “well using an Echo acoustic dispenser (Labcyte, Sunnyvale, CA).”
# [3] = GI S9 stability (Ex. Z), cyno intestinal S9; type: in vitro ADME; conditions: cynomolgus monkey, pooled intestinal S9 fractions; cyno intestinal S9, 1.0 mg/mL protein, 2 μM substrate, pH 7.4; read-out: GIS9 Cyno T½ (per Ex. Z)
# Experimental: Example Z: GI S9 stability data:
# Stock solutions of test compounds in dimethyl sulfoxide (DMSO) having a final concentration of 10 mM were prepared and used in all experiments. Sekisui XenoTech (Kansas City, KS) provided pooled intestinal S9 fractions. All other chemicals were purchased from Sigma-Aldrich (St. Louis, MO) or VWR (West Chester, PA). Internal Standard/Quench (IS/Q) used to stop reactions was 100 nM labetalol in (by volume) methanol (10%) and acetonitrile (90%).
# Stability in Intestinal S9 Fractions: Duplicate aliquots of test compound or positive control substrate were added to S9 stock diluted with phosphate buffered saline (137 mM NaCl, 2.7 mM KCl, 10 mM phosphate buffer), pH 7.4, to obtain a protein concentration of 1.0 mg/mL. The metabolic reactions were initiated by the addition of the substrates to the S9 reaction mixture to a final concentration of 2 μM. At 0, 10, 20, 30, 60 and 120 min, 25 μL aliquots of the reaction mixture were transferred to plates containing 225 μl of IS/Q solution. After quenching, the plates were centrifuged at 3000×g for 30 minutes. 150 μL aliquots of each supernatant were dried down then reconstituted with 300 μL water. Aliquots (10 μL) of the prepared samples were analyzed on a Thermo Q-Exactive mass spectrometer as described below.
# Liquid Chromatography—Mass Spectrometry: Quantification of test compounds and control substrate was performed by analyte/internal standard peak area ratio (PAR) values measured on a Thermo Q-Exactive mass spectrometer coupled to a Dionex UltiMate 3000 HPLC with a Leap Technologies HTC PAL autosampler. The column used for analysis was a Waters Acquity BEH C18 (1.7 μm particle size, 2.1×50 mm). Mobile phase A consisted of 0.1% (v/v) formic acid in water. Mobile phase B consisted of 0.1% (v/v) formic acid in acetonitrile. Elution of analytes was achieved by a series of linear gradients varying the proportions of A and B. The mass spectrometer was calibrated on a weekly basis and mass tolerance of 5 ppm was used.
# Metabolic stabilities in S9 fractions were determined by measuring the rates of disappearance of test compound and positive control substrate.
# Data (% of substrate remaining) were plotted on a semi-log scale and fitted using an exponential decline model:
# Where Ct—% of substrate remaining at time=t; C0—% of substrate remaining at time=0; t—time; T½—half-life The Half-life (T½) is determined by the following equation: […]
# Assuming a first-order reaction, the slope (k) is extrapolated from the aforementioned plotted data.
SMILES,EC50 [1],EC50 [2],half-life at 2 μM [3]
"CC(C)C(=O)OC[C@@]1(C#N)O[C@@H](c2ccc3c(N)ncnn23)[C@H](O)[C@@H]1O [Compound 1, ((2R,3S,4R,5S)-5-(4-aminopyrrolo[2,1-f][1,2,4]triazin-7-yl)-2-cyano-3,4-dihydroxytetrahydrofuran-2-yl)methyl isobutyrate]",14.4 µM,22.1 µM,25 min
"N#C[C@]1(COC(=O)C2CCC2)O[C@@H](c2ccc3c(N)ncnn23)[C@H](O)[C@@H]1O [Compound 8, ((2R,3S,4R,5S)-5-(4-aminopyrrolo[2,1-f][1,2,4]triazin-7-yl)-2-cyano-3,4-dihydroxytetrahydrofuran-2-yl)methyl cyclobutanecarboxylate]",10.1 µM,8.79 µM,4 min
"CC(C)[C@H](N)C(=O)OC[C@@]1(C#N)O[C@@H](c2ccc3c(N)ncnn23)[C@H](O)[C@@H]1O [Compound 12, ((2R,3S,4R,5S)-5-(4-aminopyrrolo[2,1-f][1,2,4]triazin-7-yl)-2-cyano-3,4-dihydroxytetrahydrofuran-2-yl)methyl L-valinate]",10.7 µM,11.5 µM,2 min
"N#C[C@]1(COC(=O)CC2CCC2)O[C@@H](c2ccc3c(N)ncnn23)[C@H](O)[C@@H]1O [Compound 16, ((2R,3S,4R,5S)-5-(4-aminopyrrolo[2,1-f][1,2,4]triazin-7-yl)-2-cyano-3,4-dihydroxytetrahydrofuran-2-yl)methyl 2-cyclobutylacetate]",8.36 µM,9.53 µM,3 min
"CCCC(=O)OC[C@@]1(C#N)O[C@@H](c2ccc3c(N)ncnn23)[C@H](O)[C@@H]1O [Compound 6, ((2R,3S,4R,5S)-5-(4-aminopyrrolo[2,1-f][1,2,4]triazin-7-yl)-2-cyano-3,4-dihydroxytetrahydrofuran-2-yl)methyl butyrate]",7.69 µM,7.71 µM,8 min
"N#C[C@]1(COC(=O)C2CCCC2)O[C@@H](c2ccc3c(N)ncnn23)[C@H](O)[C@@H]1O [Compound 18, ((2R,3S,4R,5S)-5-(4-aminopyrrolo[2,1-f][1,2,4]triazin-7-yl)-2-cyano-3,4-dihydroxytetrahydrofuran-2-yl)methyl cyclopentanecarboxylate]",8.71 µM,8.99 µM,3 min
"N#C[C@]1(COC(=O)c2ccccc2)O[C@@H](c2ccc3c(N)ncnn23)[C@H](O)[C@@H]1O [Compound 2, ((2R,3S,4R,5S)-5-(4-aminopyrrolo[2,1-f][1,2,4]triazin-7-yl)-2-cyano-3,4-dihydroxytetrahydrofuran-2-yl)methyl benzoate]",9.31 µM,7.47 µM,32 min
"CC1(C)CC(C(=O)OC[C@@]2(C#N)O[C@@H](c3ccc4c(N)ncnn34)[C@H](O)[C@@H]2O)C1 [Compound 17, ((2R,3S,4R,5S)-5-(4-aminopyrrolo[2,1-f][1,2,4]triazin-7-yl)-2-cyano-3,4-dihydroxytetrahydrofuran-2-yl)methyl 3,3-dimethylcyclobutane-1-carboxylate]",8.7 µM,8.09 µM,
"CC(C)(C)C(=O)OC[C@@]1(C#N)O[C@@H](c2ccc3c(N)ncnn23)[C@H](O)[C@@H]1O [Compound 10, ((2R,3S,4R,5S)-5-(4-aminopyrrolo[2,1-f][1,2,4]triazin-7-yl)-2-cyano-3,4-dihydroxytetrahydrofuran-2-yl)methyl pivalate]",7.87 µM,8.08 µM,123 min
"Cc1ccc(C(=O)OC[C@@]2(C#N)O[C@@H](c3ccc4c(N)ncnn34)[C@H](O)[C@@H]2O)cc1 [Compound 14, ((2R,3S,4R,5S)-5-(4-aminopyrrolo[2,1-f][1,2,4]triazin-7-yl)-2-cyano-3,4-dihydroxytetrahydrofuran-2-yl)methyl 4-methylbenzoate]",9.6 µM,8.82 µM,22 min
"N#C[C@]1(COC(=O)C2CC2)O[C@@H](c2ccc3c(N)ncnn23)[C@H](O)[C@@H]1O [Compound 7, ((2R,3S,4R,5S)-5-(4-aminopyrrolo[2,1-f][1,2,4]triazin-7-yl)-2-cyano-3,4-dihydroxytetrahydrofuran-2-yl)methyl cyclopropanecarboxylate]",10.7 µM,9.65 µM,100 min
"CCC(CC)C(=O)OC[C@@]1(C#N)O[C@@H](c2ccc3c(N)ncnn23)[C@H](O)[C@@H]1O [Compound 9, ((2R,3S,4R,5S)-5-(4-aminopyrrolo[2,1-f][1,2,4]triazin-7-yl)-2-cyano-3,4-dihydroxytetrahydrofuran-2-yl)methyl 2-ethylbutanoate]",9.47 µM,8.69 µM,57 min
"CC(C)C(=O)OC[C@@]1(C#N)O[C@@H](c2ccc3c(N)ncnn23)[C@H](OC(=O)C(C)C)[C@@H]1OC(=O)C(C)C [Compound 20, (2R,3S,4S,5S)-5-(4-aminopyrrolo[2,1-f][1,2,4]triazin-7-yl)-2-cyano-2-((isobutyryloxy)methyl)tetrahydrofuran-3,4-diyl bis(2-methylpropanoate)]",10.4 µM,31.7 µM,
